Data: patent publication US10953109B2, “Application of GPR45 gene” (FUDAN UNIVERSITY, priority 2015, dated 2021)
Entries after “also recorded” stand apart in the source; their conditions may differ.

Key:
[1] = tested on: GPR45^PB1/PB1 mice; assay: MTII injected daily into third intraventricular of adult GPR45 homozygote obese mice; body weight and fat; type: in vivo
Procedure: (§1) MTII is an agonist of MC3R/MC4R, can simulate a function of a POMC shorn product α-MSH and plays a role of suppressing appetite and promoting energy metabolism. […] When the mutant mice and wild type mice of control groups were injected with equal amounts of normal saline, the body weight was not influenced.

[2] = tested on: wild type mice; assay: MTII injected into third intraventricular of wild type mice; body weight and fat; type: in vivo
Procedure: as §1

[3] = tested on: GPR45; assay: RNA interference of GPR45 in primary culture cells of hypothalamuses of wild type fetal mice, RT-PCR; type: cell-based; conditions: 10 pmol siRNA per well, transfection 72 h
Procedure: […]
For detection of POMC expression, primary cell RNA was extracted to perform reverse transcription to obtain cDNA, then real-time quantitative PCR detection was performed, and experiment steps were the same as embodiment 11. […]

[4] = mutant mice, six days after administration, compared with normal saline control
[5] = wild type mice injected with MTII, six days

Substance | body weight after three days after MTII was injected ([1]; GPR45^PB1/PB1 mice, three days) | fat content (FIG. 24B) ([1]; adult male GPR45 homozygote mice) | body weight (FIG. 24A) ([1]; adult male GPR45 homozygote mice, after six days) | increase of the body weight ([1]; daily injection, adult obese mice) | obesity caused by GPR45 mutations ([1]; intraventricular injection) | body weight decreased relative to the body weight before injection ([1]; mutant mice, six days after MTII was injected) | weight of gonadal white adipose tissues decreased [1, 4] | weight of interscapular brown adipose tissues decreased [1, 4] | weight of retroperitoneal white adipose tissues decreased [1, 4] | weight of gonadal white adipose tissues decreased [2, 5] | weight of interscapular brown adipose tissues increased [2, 5] | weight of retroperitoneal white adipose tissues decreased [2, 5] | body weight decreased relative to the body weight before injection ([2]; wild type mice, six days after MTII was injected) | expression amount of GPR45 decreased [3] | expression amount of POMC decreased [3]
melanotan-2 [MTII] | reduced to the level of the body weight of the wild type mice | fat content decreases | body weight decreases | could be suppressed | obesity is suppressed; also recorded: effectively reverses the obesity | 13.6% | 48.5% | 50.4% | 66.7% | 44.1% | 0.4% | 50.9% | 1.8% |  | 
GPR45-siRNA: siRNA, sense 5′-CCGACAUCAUGCUGUCUUUAUTT-3′ (SEQ ID NO. 29), antisense 5′-AUAAAGACAGCAUGAUGUCGGTT-3′ (SEQ ID NO. 30) (chemistry not given here) |  |  |  |  |  |  |  |  |  |  |  |  |  | 53.4% | 30.7%
